# Measured values published in DBAASP.
# Tests used:
# Experiment in all cases: ≥ marks a high value that may be exact or a test limit, other limits are often not marked, values filed in µg/mL are converted to µM
# [1] = test system: Escherichia coli NCTC 10418
# [2] = test system: Staphylococcus aureus NCTC 10788
# [3] = test system: Candida albicans NCPF 1467
# Staphylococcus aureus = test system: Staphylococcus aureus
# Pseudomonas aeruginosa = test system: Pseudomonas aeruginosa
# [4] = test system: Micrococcus luteus CCM 144
# Bacillus subtilis 168 = test system: Bacillus subtilis 168
# Escherichia coli B = test system: Escherichia coli B
# [5] = test system: Candida albicans F7-39/IDE99
# [6] = test system: Pseudomonas aeruginosa H1001
# [7] = test system: Pseudomonas corrugata DSM 7228
# [8] = test system: Xanthomonas vesicatoria DSM 50861
# [9] = test system: Pectobacterium carotovorum subsp. carotovorum DSM 30168
# [10] = test system: Pseudomonas syringae pv. tomato DC3000
# [11] = test system: Pseudomonas syringae pv. syringae DSM 10604
# [12] = test system: Clavibacter michiganensis subsp. michiganensis DSM 46294
SMILES,MIC [1] [µM],MIC [2] [µM],MIC [3] [µM],MIC [6] [µM],further results
CC[C@H](C)[C@H](NC(=O)CNC(=O)[C@H](CO)NC(=O)[C@H](C)NC(=O)[C@@H](NC(=O)[C@H](Cc1cnc[nH]1)NC(=O)[C@@H]1CCCN1C(=O)[C@@H](NC(=O)[C@H](CC(C)C)NC(=O)[C@H](CO)NC(=O)[C@H](CC(C)C)NC(=O)[C@@H](N)Cc1ccccc1)[C@@H](C)CC)[C@@H](C)CC)C(=O)N[C@@H](C)C(=O)N[C@@H](CO)C(=O)N[C@@H](CC(C)C)C(=O)N[C@H](C(=O)N[C@@H](CCCCN)C(=O)N[C@@H](CC(N)=O)C(=O)N[C@@H](Cc1ccccc1)C(N)=O)C(C)C [FLSLIPHIASGIASLVKNF],≥ 200,5,20,–,–
CC[C@H](C)[C@H](NC(=O)[C@H](C)NC(=O)[C@H](CCCCN)NC(=O)[C@H](Cc1c[nH]c2ccccc12)NC(=O)[C@H](CC(N)=O)NC(=O)[C@@H](N)CCCCN)C(=O)N[C@@H](CC(C)C)C(=O)N[C@@H](CCCCN)C(=O)N[C@@H](Cc1cnc[nH]1)C(=O)N[C@H](C(=O)N[C@H](C(=O)N[C@@H](CCCCN)C(N)=O)[C@@H](C)CC)[C@@H](C)CC [KNWKAILKHIIK],–,–,–,–,MIC (Staphylococcus aureus): 65 µM; MIC (Pseudomonas aeruginosa): 65 µM; MIC [4]: 5 µM; MIC (Bacillus subtilis 168): 2.5 µM; MIC (Escherichia coli B): 7.8 µM; MIC [5]: 8 µM
CC[C@H](C)[C@H](NC(=O)[C@H](CCCCN)NC(=O)[C@H](Cc1c[nH]c2ccccc12)NC(=O)[C@H](CCCCN)NC(=O)[C@@H](N)CCCCN)C(=O)N[C@H](C(=O)N[C@H](C(=O)N[C@H](C(=O)N[C@@H](CCCCN)C(=O)N[C@@H](Cc1c[nH]c2ccccc12)C(=O)N[C@@H](CCCCN)C(=O)N[C@@H](CCCCN)C(N)=O)[C@@H](C)CC)C(C)C)C(C)C [KKWKIVVIKWKK],–,–,–,2.53,–
CC[C@H](C)[C@H](NC(=O)[C@@H](N)Cc1ccccc1)C(=O)N[C@@H](CCCN=C(N)N)C(=O)N[C@@H](Cc1c[nH]c2ccccc12)C(=O)N[C@@H](CCCN=C(N)N)C(=O)N[C@@H](Cc1ccccc1)C(=O)N[C@@H](CCCN=C(N)N)C(=O)N[C@@H](Cc1c[nH]c2ccccc12)C(=O)N[C@@H](Cc1c[nH]c2ccccc12)C(=O)N[C@@H](CCCN=C(N)N)C(=O)N[C@@H](Cc1c[nH]c2ccccc12)C(=O)N[C@@H](CCCN=C(N)N)C(=O)N[C@@H](CCCN=C(N)N)C(N)=O [FIRWRFRWWRWRR],–,–,–,2.85,–
CC[C@H](C)[C@H](NC(=O)[C@H](CO)NC(=O)[C@H](CC(N)=O)NC(=O)[C@@H](NC(=O)[C@H](Cc1ccccc1)NC(=O)[C@H](C)NC(=O)[C@H](CO)NC(=O)[C@H](C)NC(=O)[C@H](Cc1ccccc1)NC(=O)[C@H](CC(=O)O)NC(=O)[C@H](CCCCN)NC(=O)[C@H](C)NC(=O)CNC(=O)[C@@H](NC(=O)[C@H](CCCCN)NC(=O)[C@H](CC(C)C)NC(=O)[C@H](CCCCN)NC(=O)[C@H](CCC(=O)O)NC(=O)[C@H](CC(C)C)NC(=O)[C@H](Cc1ccccc1)NC(=O)CN)[C@@H](C)O)C(C)C)C(=O)N[C@@H](CCCCN)C(N)=O [GFLEKLKTGAKDFASAFVNSIK],≥ 54,≥ 216,≥ 108,–,–
NCCCC[C@H](NC(=O)[C@H](CCCCN)NC(=O)[C@H](Cc1c[nH]c2ccccc12)NC(=O)[C@H](CCCCN)NC(=O)[C@H](Cc1c[nH]c2ccccc12)NC(=O)[C@H](Cc1c[nH]c2ccccc12)NC(=O)[C@@H](N)CCCCN)C(N)=O [KWWKWKK],–,–,–,≥ 229,–
CC(C)C[C@H](NC(=O)[C@H](CC(C)C)NC(=O)[C@H](CCCN=C(N)N)NC(=O)[C@H](CCCCN)NC(=O)[C@H](CC(C)C)NC(=O)[C@H](CC(C)C)NC(=O)[C@H](CCCCN)NC(=O)[C@H](CCCCN)NC(=O)[C@H](CCCN=C(N)N)NC(=O)[C@@H](N)CCCCN)C(N)=O [KRKKLLKRLL],–,–,–,–,MIC [7]: 0.0772 µM; MIC [8]: 3.86 µM; MIC [9]: 7.72 µM; MIC [10]: 0.772 µM; MIC [11]: 0.0772 µM; MIC [12]: 3.86 µM
CC[C@H](C)[C@H](NC(=O)CNC(=O)[C@@H]1CCCN1C(=O)[C@H](CC(C)C)NC(=O)[C@H](C)NC(=O)[C@H](CC(N)=O)NC(=O)[C@H](CCCCN)NC(=O)[C@@H](NC(=O)[C@@H](NC(=O)[C@H](CO)NC(=O)[C@H](CC(C)C)NC(=O)[C@@H](NC(=O)CN)C(C)C)C(C)C)[C@@H](C)CC)C(=O)N[C@@H](CCSC)C(=O)N[C@@H](CCCN=C(N)N)C(=O)N[C@@H](Cc1ccccc1)C(=O)N[C@H](C(=O)N[C@@H](C)C(N)=O)[C@@H](C)CC [GVLSVIKNALPGIMRFIA],≥ 33.7,4.21,4.21,–,–
